Measurements: article PMC5610242, “Stapled peptide inhibitors of RAB25 target context-specific phenotypes in cancer” (Nature Communications, 2017)
Bridge positions count the residues as written; N and C are the ends. Square brackets hold non-standard residues; d marks the D form. Ends that are not written are not given here. Peptide text beside a SMILES is read from it. * marks the point of attachment. FITC = O=C1OC2(c3ccc(O)cc3Oc3cc(O)ccc32)c2ccc(NC(=S)*)cc21; monoethylene glycol = monoethylene glycol moiety; Met(O) = CS(=O)CC[C@H](N)C(=O)O; S5 = C=CCCC[C@](C)(N)C(=O)O; Nle = CCCC[C@H](N)C(=O)O; βAla = NCCC(=O)O

Legend:
RAB25 = target: T1, RAB25 (Homo sapiens, UniProt P57735); test: Fluorescence polarization binding of FITC-labeled RFP peptides to RAB25; details: FP, 30 min room temperature
T1 construct: GST-RAB25 (1–180) in pET41 Ek/LIC; made in house; host or cells: E. coli BL21
T1 sequence (P57735 1-180): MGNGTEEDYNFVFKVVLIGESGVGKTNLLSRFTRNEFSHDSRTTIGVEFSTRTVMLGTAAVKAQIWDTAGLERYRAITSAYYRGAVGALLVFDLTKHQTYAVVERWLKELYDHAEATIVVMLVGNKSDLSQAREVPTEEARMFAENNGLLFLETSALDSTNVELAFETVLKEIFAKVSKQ
Method: (§1) Fluorescence polarization assays were performed with for GST-RAB25 and GST-RAB11a to quantify binding to FITC-labeled unmodified and stapled RFP peptides. Initial fluorescence polarization measurements for RFP1−RFP13 were made by incubating FITC-RFP peptides (25 nM) with threefold dilutions of a given protein in FP buffer, consisting of 20 mM Tris pH 8.0, 150 mM NaCl, 5 mM MgCl2, 2 mM DTT, 10 μM GTP and 2% glycerol. Dilutions and incubations were performed in 96-well, black flat-bottom plates (Nunc) to a total volume of 100 μL, and equilibrated at room temperature for 30 min. Polarization was measured on a Spetramax-M5 multi-label plate reader (Molecular Devices) with λ ex = 485 nm and λ em = 525 nm. Polarization values were determined using the equation: P = (V − H)/(V + H), where P denotes polarization, V denotes vertical emission intensity and H represents horizontal emission intensity. Fraction bound was calculated using the equilibrium maximum polarization value obtained for a given protein among ligands, to which background-subtracted fluorescence polarization values were internally normalized. Fluorescence polarization measurements for FITC-RFP14, 24, 26, 31, and 32 were performed as detailed above with the exception that 10 nM FITC-ligand was used.

MCF7 cells = test: Confocal fluorescence microscopy for peptide cellular penetration; format: in vitro ADME; details: 5 μM FITC-labeled peptide, 10% FBS-containing RPMI, 8 h, 37 °C
Method: MCF7 cells were grown in 8-well chamber slides (Ibidi) and treated with FITC-labeled RFPs (5 μM) in 10% FBS-containing RPMI for 8 h at 37 °C. Cells were washed 5× in PBS, fixed in 2% paraformaldehyde/PBS and stained with DAPI according to the manufacturer’s protocol (Sigma). A coverslip was mounted onto the slide and confocal fluorescence microscopy performed with an Olympus DSU spinning disk confocal microscope (Olympus Corporation of the Americas, Center Valley, PA) with a Hamamatsu model C9100 EM-CCD camera (Hamamatsu Photonics, Skokie, IL) run by SlideBook v5.0 software (Intelligent Imaging Innovations, Denver, CO). Post-acquisition processing (multi-channel overlay) was performed using ImageJ software (NIH). Results are representative of images taken from three fields across the same well in at least two biological replicates.

[1] = target: T2, RAB11a (activated Q70L mutant) (Homo sapiens, UniProt P62491, Q70L); test: Fluorescence polarization binding of FITC-labeled RFP peptides to RAB11a; details: FP, 25 nM FITC-RFP peptide, 30 min room temperature
T2 construct: GST-RAB11a (1–173, Q70L mutant) in pGEX5x-1; made in house; host or cells: E. coli BL21
T2 sequence (P62491 1-173 Q70L): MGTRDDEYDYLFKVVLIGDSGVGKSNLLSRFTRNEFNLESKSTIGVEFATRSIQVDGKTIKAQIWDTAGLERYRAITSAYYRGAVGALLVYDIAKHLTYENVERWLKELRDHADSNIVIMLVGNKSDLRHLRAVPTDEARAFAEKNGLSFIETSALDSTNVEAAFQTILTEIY
Method: as §1

[2] = Circular dichroism spectroscopy and thermal denaturation; format: physicochemical; details: 50 μM peptide in deionized water, 190–260 nm, room temperature
Method: Circular dichroism spectroscopy experiments were performed on a Jasco J-170 using a quartz cuvette (path length: 0.1 cm). Peptides were dissolved to 50 μM in deionized water and CD measurements were recorded at one nm increments between 190 and 260 nm, at room temperature. Thermal denaturation experiments were performed by recording CD absorbance at 222 nm at one-degree increments from 10 to 90 °C using a thermostat-controlled cuvette chamber. Raw denaturation data were fit to sigmoidal curves with Prizm 5 software, and the half-maximal temperature was reported as the peptide T m.

His6-RAB25 (1–180) [3] = target: T3, His6-RAB25 (1–180) (UniProt P57735 1-180); test: competition with bio-RFP14 (ALPHAscreen)
T3 chain: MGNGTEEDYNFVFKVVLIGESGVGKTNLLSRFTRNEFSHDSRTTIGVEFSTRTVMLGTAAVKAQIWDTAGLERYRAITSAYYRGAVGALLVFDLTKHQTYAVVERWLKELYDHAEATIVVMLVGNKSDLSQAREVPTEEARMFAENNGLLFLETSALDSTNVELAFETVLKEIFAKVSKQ

His6-RAB25 (1–180) [4] = target: T4, His6-RAB25 (1–180) (UniProt P57735 1-180); test: AlphaScreen or HTRF; competition: soluble peptide or protein at varied concentration with biotin-RFP14 and H6-RAB25 (0.2 μM each); streptavidin donor and Ni2+-NTA acceptor beads; FP buffer with 0.1% BSA; room temperature; details: both partners purified
T4 construct: RAB25, residues 1-180; vector pET28; also called H6-RAB25; His6-labeled RAB25; source: BL21 cells, purified (Ni-NTA, Superdex 75 gel filtration)
T4 sequence (looked up): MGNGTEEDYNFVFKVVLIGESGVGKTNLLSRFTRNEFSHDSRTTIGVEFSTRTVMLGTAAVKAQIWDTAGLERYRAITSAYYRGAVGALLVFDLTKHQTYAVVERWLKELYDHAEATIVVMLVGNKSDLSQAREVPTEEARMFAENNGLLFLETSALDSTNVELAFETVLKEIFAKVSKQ

[5] = target: T5, GST-RAB11a (1–173, Q70L mutant) (UniProt P62491 1-173, Q70L); test: fluorescence polarisation; FITC-peptide 25 nM with threefold dilutions of GST-RAB protein; 20 mM Tris pH 8.0, 150 mM NaCl, 5 mM MgCl2, 2 mM DTT, 10 μM GTP, 2% glycerol; room temperature, 30 min; apparent Kd; details: both partners purified
T5 construct: vector pGEX5x-1; 10 μM GTP in the assay buffer; source: BL21 cells, purified (glutathione sepharose, Superdex 75 gel filtration)
T5 sequence (looked up): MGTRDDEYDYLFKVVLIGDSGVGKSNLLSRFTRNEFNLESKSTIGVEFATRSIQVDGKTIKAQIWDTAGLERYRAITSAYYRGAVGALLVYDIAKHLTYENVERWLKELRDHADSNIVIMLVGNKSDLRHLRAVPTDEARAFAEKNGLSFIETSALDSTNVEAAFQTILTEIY

## CCCC[C@@H]1NC(=O)[C@H](C(C)C)NC(=O)[C@@](C)(NC(=O)[C@@H](NC(=O)[C@H](CC(C)C)NC(=O)[C@H](CC(C)C)NC(=O)[C@H](CCCNC(=N)N)NC(=O)[C@H](CC(=O)O)NC(=O)[C@@H](NC(=O)[C@H](Cc2ccc(O)cc2)NC(=O)[C@H](CC(N)=O)NC(=O)[C@H](CCC(=O)O)NC(=O)[C@H](CC(C)C)NC(=O)[C@H](CCC(=O)O)NC(=O)[C@H](CCCNC(=N)N)NC(=O)[C@@H](NC(=O)[C@H](CCC(N)=O)NC(=O)[C@H](CCCNC(=N)N)NC(=O)CCNC(=O)[C@@H](N)Cc2c[nH]c3ccccc23)C(C)C)[C@@H](C)CC)C(C)C)CCCC=CCCC[C@@](C)(C(=O)N[C@H](C(=O)N2CCC[C@H]2C(=O)N[C@@H](CC(N)=O)C(=O)N[C@H](C(=O)N[C@@H](CC(C)C)C(=O)N[C@@H](CCCNC(=N)N)C(=O)N[C@H](C(=O)N2CCC[C@H]2C(=O)N[C@@H](CCCNC(=N)N)C(N)=O)[C@@H](C)CC)[C@@H](C)CC)[C@@H](C)O)NC(=O)[C@H](CCC(=O)O)NC1=O [RFP14] (H-W[βAla]RQVRELENYIDRLLV[S5]V[Nle]E[S5]TPNILRIPR-NH2; staple 18-22)
RAB25; 10 nM FITC-ligand, GST-RAB25, FP buffer pH 8.0 with 10 μM GTP, mean with 95% C.I., triplicate, read-out: apparent Kd (95% C.I.) RAB25
  Kd: 40 nM
MCF7 cells
  cellular uptake and distribution: significant cellular uptake and distribution throughout the cytosol and nucleus
MCF7 cells; listed as FITC-RFP14
  cellular uptake and distribution: comparable cellular uptake

## KQEEINFRLQDYIDRIIVAIMETNPSILEVK-NH2 (C-terminus assumed) [RFP3]
[1]
  binding to RAB11a (in words): micromolar affinities
RAB25; 25 nM FITC-RFP peptide
  binding to RAB25 (in words): micromolar affinities
[2]
  CD spectrum, secondary structure: β-sheet

B1: GST-FIP3 (649–756) (domain or fragment, UniProt O75154 649-756, looked up)
chain: MGLQEYHSRARESELEQEVRRLKQDNRNLKEQNEELNGQIITLSIQGAKSLFSTAFSESLAAEISSVSRDELMEAIQKQEEINFRLQDYIDRIIVAIMETNPSILEVK
notes: Rab11-FIP3 (Class-II FIP), residues 649-756; vector pGEX 6P-1; no cleavage of GST is described; also called FIP3 protein (residues 649–756); source: BL21 cells, purified (glutathione sepharose, Superdex 75 gel filtration)
His6-RAB25 (1–180) [3]
  IC50: > 10000 nM
His6-RAB25 (1–180) [4]
  binding result: binds

B2: RFP5 (peptide)
chain: {FITC-monoethylene glycol}-KQEEINFRLQDYIDRIIVAI[Met(O)]ETNPSILEVK
[5]
  fold lower affinity than the unoxidised peptide: ~5 fold
